Data on three molecules can be found in publication PMC10743905, “Design, Synthesis, and In Vitro and In Vivo Bioactivity Studies of Hydrazide–Hydrazones of 2,4-Dihydroxybenzoic Acid” (International Journal of Molecular Sciences, 2023).

One series has as its system Escherichia coli. Details: method as in PMID 23510516. The settings on record: cited from earlier work.
For the next series, the system named is Pasteurella multocida. Details: method as in PMID 23510516. The conditions noted are these: cited from earlier work.
The next series relates to Neisseria gonorrhoeae. Details: method as in PMID 23510516. The settings on record: cited from earlier work.
Series [1] has as its system Staphylococcus aureus MRSA strain. Details: method as in PMID 23510516. The conditions noted are these: cited from earlier work.
In another series the test system is Enterococcus faecalis. Details: method as in PMID 23510516. The conditions noted are these: cited from earlier work.
The subject of the next series is MDA-MB-231 cell line. Details: method as in PMID 34578985. The settings on record: MDA-MB-231 breast cancer cell line; cited from earlier work.
The next series concerns MCF-7 cell line. Details: method as in PMID 34578985. The settings on record: MCF-7 breast cancer cell line; cited from earlier work.
Series [2] concerns Micrococcus luteus ATCC 10240. Nature of the series: Broth microdilution MIC/MBC. The class given is cell-based. Put shortly:
(§1)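 Preliminary agar screening used 2 mg/mL compound with incubation at 37°C for 24 h (bacteria) or 30°C for 48 h (fungi). Subsequent MIC determination: two-fold broth microdilution, 1000 to 0.488 µg/ml final.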
For orientation: In broth dilution the organism is exposed to a series of concentrations in liquid medium.

Series [3] concerns Proteus mirabilis ATCC 12453. Nature of the series: Broth microdilution MIC/MBC. The class given is cell-based. In a few lines:
as §1

The subject of series [4] is Pseudomonas aeruginosa ATCC 9027. Briefly: Broth microdilution MIC/MBC. The settings on record: ATCC9027. Type of series: cell-based. Put shortly:
as §1

Series [5] has as its system Salmonella typhimurium ATCC 14028. Briefly: Broth microdilution MIC/MBC. Type of series: cell-based. In a few lines: as §1
Series [6] has as its system Staphylococcus aureus ATCC 29213. Briefly: Broth microdilution MIC/MBC. Type of series: cell-based. Put shortly:
as §1

The test system of series [7] is Staphylococcus aureus ATCC 43300. Nature of the series: Broth microdilution MIC/MBC. The conditions noted are these: Staphylococcus aureus ATCC 43300 (MRSA). Type of series: cell-based. Put shortly:
as §1

Series [8] deals with Staphylococcus epidermidis ATCC 12228. Briefly: Broth microdilution MIC/MBC. The class given is cell-based. In a few lines: as §1
Series [9] has as its system Bacillus subtilis ATCC 6633. Briefly: Broth microdilution MIC/MBC. The class given is cell-based. Put shortly:
as §1

The subject of series [10] is Bacillus cereus ATCC 10876. Nature of the series: Broth microdilution MIC/MBC. The class given is cell-based. Put shortly:
as §1

Series [11] relates to Bordetella bronchiseptica ATCC 4617. Briefly: Broth microdilution MIC/MBC. The class given is cell-based. In a few lines:
as §1

For series [12], the system named is Enterococcus faecalis ATCC 29212. Nature of the series: Broth microdilution MIC/MBC. The class given is cell-based. In a few lines:
as §1

Series [13] relates to Escherichia coli ATCC 25922. Briefly: Broth microdilution MIC/MBC. The class given is cell-based. In a few lines: as §1
Series [14] concerns Klebsiella pneumoniae ATCC 13883. Briefly: Broth microdilution MIC/MBC. The class given is cell-based. In a few lines:
as §1

The subject of series [15] is Candida albicans ATCC 10231. Nature of the series: Broth microdilution MIC/MFC. The class given is cell-based. Put shortly: as §1
For series [16], the system named is Candida albicans ATCC 2091. Nature of the series: Broth microdilution MIC/MFC. Type of series: cell-based. Put shortly: as §1
Series [17] relates to Candida glabrata ATCC 90030. Nature of the series: Broth microdilution MIC/MFC. The class given is cell-based. The settings on record: Nakaseomyces glabratus, ATCC90030, read-out: MIC. In a few lines: as §1
Series [18] relates to Candida krusei ATCC 14243. Nature of the series: Broth microdilution MIC/MFC. The settings on record: Pichia kudriavzevii, ATCC14243, read-out: MIC. Type of series: cell-based. In a few lines:
as §1

Series [19] concerns Candida parapsilosis ATCC 22019. Nature of the series: Broth microdilution MIC/MFC. The class given is cell-based. The conditions noted are these: Lodderomyces parapsilosis, ATCC22019, read-out: MIC. Put shortly:
as §1

Series [20] has as its system reference Gram-positive bacteria. Briefly: Broth microdilution, summary over the Gram-positive panel. The settings on record: read-out: MIC. The class given is cell-based. The text has this:
(§2) In vitro antimicrobial activity assays - Methodology
(§3) The examined compounds 1 - 24 were screened in vitro for antibacterial and antifungal activities using the broth microdilution method according to procedure reported earlier by our research group and European Committee on Antimicrobial Susceptibility Testing (EUCAST) and Clinical and Laboratory Standards Institute (CLSI) guidelines against a panel of reference and clinical or saprophytic strains of microorganisms, in-cluding Gram-positive bacteria, Staphylococcus aureus ATCC 43300 (Methicillin Resistant S. aureus – MRSA), Staphylococcus aureus ATCC 29213 (Methicillin Susceptible S. aureus – MSSA), Staphylococcus epidermidis ATCC 12228, Enterococcus faecalis ATCC 29212, Micro-coccus luteus ATCC 10240, Bacillus subtilis ATCC 6633 and Bacillus cereus ATCC 10876), Gram-negative bacteria (Bordetella bronchiseptica ATCC 4617, Escherichia coli ATCC 25922, Klebsiella pneumoniae ATCC 13883, Proteus mirabilis ATCC 12453, Salmonella typhimurium ATCC 14028 and Pseudomonas aeruginosa ATCC 9027) and fungi belonging to yeasts (Can-dida albicans ATCC 10231, Candida albicans ATCC 2091, Candida parapsilosis ATCC 22019, Candida glabrata ATCC 90030 and Candida krusei ATCC 14243). The microorganisms be-longing to ATCC came from American Type Culture Collection, routinely used for the evaluation of antimicrobials. […]
Samples containing examined compounds were dissolved in dimethyl sulfoxide (DMSO). […]
(§4) Subsequently, the MIC (Minimal Inhibitory Concentration) of the compounds was ex-amined by the microdilution broth method, using their two-fold dilutions in Mueller- […]
(§5) Hinton broth or (for bacteria) and RPMI 1640 broth with MOPS (for fungi) prepared in 96-well polystyrene plates. Final concentrations of the compounds ranged from 1000 to 0.488 µg/ml. Microbial suspensions were prepared in 0.85% NaCl with an optical density of 0.5 McFarland standard. Next each bacterial or fungal suspension was added per each well containing broth and various concentrations of the examined compounds. After incuba-

In a further series the test system is Gram-negative bacteria. Nature of the series: Broth microdilution, summary over the Gram-negative panel. Type of series: cell-based.
Source text: as §2
as §3, with “antimicrobials. All the used microbial cultures were first subcultured on nu-trient agar or Sabouraud agar at 35°C for 18-24 h or 30°C for 24-48 h for bacteria and fungi,” for “antimicrobials.”
The surface of Mueller-Hinton agar (for bacteria) and RPMI 1640 with MOPS (for fungi) were inoculated with the suspensions of bacterial or fungal species. Microbial suspensions were prepared in sterile saline with an optical density of McFarland standard scale 0.5.
Samples containing examined compounds were dissolved in dimethyl sulfoxide (DMSO).
Furthermore, bacterial and fungal suspensions were put onto Petri dishes with solid me-dia containing 2 mg/mL of the tested compounds followed incubation at 37°C for 24h and 30°C for 48h for bacteria and fungi, respectively. The inhibition of microbial growth was judged by comparison with a control culture prepared without any sample tested. Ciprof-loxacin, vancomycin, nitrofurantoin, cefuroxime, ampicillin or nystatin (Sigma) were used as a reference antibacterial or antifungal compounds, respectively.
as §4, §5

In a further series the test system is HepG2 cells. Details: method as in doi:10.1016/j.cclet.2016.10.020. The conditions noted are these: standard; cited from earlier work.

≈ marks a conversion by molar mass, not a printed value.

As to `O=C(O)c1ccc(O)cc1O` [2,4-dihydroxybenzoic acid], the MIC (commonly the smallest concentration in the dilution series that meets the test's criterion for growth inhibition) was 1000 µg/mL (≈ 6490 µM) in the series on Escherichia coli; 1000 µg/mL (≈ 6490 µM) with Pasteurella multocida; 1000 µg/mL (≈ 6490 µM) with Neisseria gonorrhoeae; 500 µg/mL (≈ 3240 µM) in series [1]; 1000 µg/mL (≈ 6490 µM) in the series on Enterococcus faecalis. Also, in the series on MDA-MB-231 cell line, the 50% inhibitory concentration (IC50) – broadly, the concentration at which inhibition is half-maximal – is 4770 µM. Besides, the cytotoxicity result in the series on MCF-7 cell line is “nontoxic”.
`O=C(N/N=C/c1cc(Br)c(O)c(Br)c1)c1ccc(O)cc1O` [Compound 17, N-[(3,5-dibromo-4-hydroxyphenyl)methylidene]-2,4-dihydroxybenzohydrazide]: the melting point (commonly the temperature, or range, at which the solid turns liquid) was found to be 260 °C. The MBC/MIC in series [2] is recorded as over 8. The minimal bactericidal concentration (MBC) (as a rule, the lowest tested concentration that kills the bacteria rather than only halting them) in series [2] (ATCC10240) is over 1000 µg/mL. In addition, the MIC in series [2] (ATCC10240, read-out: MIC) was 125 µg/mL (≈ 291 µM). In [3], this molecule displayed an MBC/MIC of over 1. Further, in series [3] (ATCC12453), the MBC is over 1000 µg/mL and the lowest concentration to inhibit growth (MIC) was 1000 µg/mL (≈ 2330 µM). In [4], this molecule displayed a minimum inhibitory concentration (MIC) of over 1000 µg/mL. Also, in series [5], the MBC/MIC is given as over 1. In series [5] (Salmonella enterica), this molecule had an MBC of over 1000 µg/mL and a minimum inhibitory concentration (MIC) of 1000 µg/mL (≈ 2330 µM). The MBC/MIC in series [6] amounted to 32. Moreover, in [6] (ATCC29213), the MBC was over 1000 µg/mL and the minimum inhibitory concentration (MIC) turned out to be 31.2 µg/mL (≈ 72.7 µM). Also, in [7], the minimal bactericidal concentration (MBC) is over 1000 µg/mL, the MBC/MIC was over 16 and it took 62.5 µg/mL (≈ 145 µM) to inhibit growth (MIC). In series [8], this molecule had an MBC/MIC of over 8. In addition, in [8] (ATCC12228), the MBC was over 1000 µg/mL. The MIC in [8] (ATCC12228, read-out: MIC) came to 250 µg/mL (≈ 581 µM). In series [9], this molecule registered an MBC/MIC of over 8. The MBC in [9] (ATCC6633) was over 1000 µg/mL. In addition, in [9] (ATCC6633, read-out: MIC), the minimum inhibitory concentration (MIC) worked out at 125 µg/mL (≈ 291 µM). In series [10], this molecule displayed an MBC/MIC of over 4. The minimal bactericidal concentration (MBC) in series [10] (ATCC10876) is over 1000 µg/mL. Moreover, the MIC in series [10] (ATCC10876, read-out: MIC) stood at 250 µg/mL (≈ 581 µM). In series [11], this molecule had an MBC/MIC of over 1. For the same molecule, in [11] (ATCC4617), the MBC was over 1000 µg/mL and the lowest concentration to inhibit growth (MIC) was 1000 µg/mL (≈ 2330 µM). The MBC/MIC in series [12] was over 1. Also, in series [12] (ATCC29212, read-out: MBC), the MBC is over 1000 µg/mL. Further, in series [12] (ATCC29212, read-out: MIC), the MIC was found to be 500 µg/mL (≈ 1160 µM). The MBC/MIC in [13] is over 1. For the same molecule, in [13] (ATCC25922), the minimum bactericidal concentration (MBC) is over 1000 µg/mL and the MIC amounted to 1000 µg/mL (≈ 2330 µM). The molecule also displayed an MBC/MIC in series [14] of over 1. In series [14] (ATCC13883), this molecule showed an MBC of over 1000 µg/mL and a minimal inhibitory concentration (MIC) of 1000 µg/mL (≈ 2330 µM). In addition, in series [15], the MFC/MIC is over 1. The minimal fungicidal concentration (MFC) (usually the smallest concentration meeting the test's criterion for killing the fungus) in [15] (ATCC10231, read-out: MFC) was over 1000 µg/mL. Moreover, the MIC in [15] (ATCC10231, read-out: MIC) is 1000 µg/mL (≈ 2330 µM). Moreover, in series [16], the MFC/MIC was over 1. Moreover, the MFC in series [16] (ATCC2091, read-out: MFC) is over 1000 µg/mL. In addition, in series [16] (ATCC2091, read-out: MIC), the minimum inhibitory concentration (MIC) worked out at 1000 µg/mL (≈ 2330 µM). Besides, the minimal inhibitory concentration (MIC) in [17] was over 1000 µg/mL. Moreover, the minimum inhibitory concentration (MIC) in [18] is over 1000 µg/mL. Moreover, the minimum inhibitory concentration (MIC) in series [19] is over 1000 µg/mL. Also, the MIC in series [20] was 15.6 to 1000 µg/mL (≈ 36.3 to 2330 µM). In the series on Gram-negative bacteria, this molecule returned a minimal bactericidal concentration (MBC) of over 1000 µg/mL and an MIC of 500 to 1000 µg/mL (≈ 1160 to 2330 µM).
Take `COc1cccc2c1C(=O)c1c(O)c3c(c(O)c1C2=O)C[C@@](O)(C(=O)CO)C[C@@H]3O[C@H]1C[C@H](N)[C@H](O)[C@H](C)O1` [doxorubicin]: the 50% inhibitory concentration (IC50) with HepG2 cells is 6 µM.
